# Results reported in US20020038064A1, “Colorless petroleum marker dyes” (priority 2000, published 2002).
# Test: Water extraction test of 10 ppm marker solution in kerosene
# Type: physicochemical
# Conditions: 10 mL of 10 ppm solution in kerosene stirred with 10 mL water for ½ hour; layers separated, 2 mL developer added to each layer
# Experimental: A marker solution was prepared by dissolving a 100 mg portion of the residue in xylenes (100 mL), and diluting 1 mL of the resulting solution to 100 mL with kerosene to make a 10 ppm solution.
# A developer was made by dissolving 1 g of a 40% solution of benzyltrimethylammonium hydroxide in methanol in 99 g of 2-ethyl-1-hexanol. To a 10 mL portion of the 10 ppm marker solution prepared above was added 2.5 mL of the developer. […] If necessary, quantitative determination of the marker concentration can be accomplished by measuring the absorbance of the solution at a wavelength of 581 nm.
# A 10 mL portion of the 10 ppm solution prepared above was stirred with 10 mL of water for ½ hour and the layers were separated. […] Addition of 2 mL of developer solution to the water layer gave no color.
structure (smiles),measurement,value
"CCCC(=O)Oc1ccc(C2(c3ccc(OC(=O)CCC)c(C)c3)OC(=O)c3ccccc32)cc1C [Example 1, Di-n-Butyl Ester of o-Cresolphthalein]",extraction of the marker into the water layer,not extracted into the water layer
